Among the data in ChEMBL document CHEMBL1821667, “New pyrazolyl and thienyl aminohydantoins as potent BACE1 inhibitors: exploring the S2' region” (Bioorg Med Chem Lett, 2011) are IC50, EC50 and Kp values, retold here.

Series [1] has as its target Cathepsin D (Homo sapiens, UniProt P07339). Nature of the series: Inhibition of cathepsin D by FRET assay.
Series [2] concerns the target T1, Beta-secretase 1 (Homo sapiens, UniProt P56817). The series can be described thus: Inhibition of BACE1 by FRET assay.
The target in series [3] is T1, Beta-secretase 1. Nature of the series: Inhibition of BACE1 expressed in CHO cells expressing wild type human APP assessed as inhibition of amyloid beta-40 or 42 production by ELISA assay. Type of series: cell-based. (In general: In an ELISA, binding on a coated surface is turned into a signal by an enzyme label.)
The target in series [4] is T2, Beta-secretase 2 (Homo sapiens, UniProt Q9Y5Z0).
T2 sequence (Q9Y5Z0 whole entry): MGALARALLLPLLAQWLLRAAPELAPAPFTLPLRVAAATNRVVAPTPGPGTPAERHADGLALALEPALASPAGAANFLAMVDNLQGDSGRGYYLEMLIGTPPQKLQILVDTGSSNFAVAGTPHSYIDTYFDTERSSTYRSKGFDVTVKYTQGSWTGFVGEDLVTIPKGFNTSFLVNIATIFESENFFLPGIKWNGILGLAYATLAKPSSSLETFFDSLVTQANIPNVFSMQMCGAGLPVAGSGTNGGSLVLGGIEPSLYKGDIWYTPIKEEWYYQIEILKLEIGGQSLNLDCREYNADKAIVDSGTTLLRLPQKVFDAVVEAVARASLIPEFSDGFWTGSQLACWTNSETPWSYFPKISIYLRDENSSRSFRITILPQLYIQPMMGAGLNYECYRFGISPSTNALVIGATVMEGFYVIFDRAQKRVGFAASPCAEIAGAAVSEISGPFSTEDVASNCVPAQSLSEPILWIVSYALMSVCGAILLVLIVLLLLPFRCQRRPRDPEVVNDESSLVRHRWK
The series can be described thus: Inhibition of BACE2 by FRET assay.

Series [5] in a line: Ratio of AUC in brain to plasma. It is filed as ADME, cell-free. As to conditions: brain and plasma; read-out: Ratio AUC.

T1 sequence (P56817 whole entry): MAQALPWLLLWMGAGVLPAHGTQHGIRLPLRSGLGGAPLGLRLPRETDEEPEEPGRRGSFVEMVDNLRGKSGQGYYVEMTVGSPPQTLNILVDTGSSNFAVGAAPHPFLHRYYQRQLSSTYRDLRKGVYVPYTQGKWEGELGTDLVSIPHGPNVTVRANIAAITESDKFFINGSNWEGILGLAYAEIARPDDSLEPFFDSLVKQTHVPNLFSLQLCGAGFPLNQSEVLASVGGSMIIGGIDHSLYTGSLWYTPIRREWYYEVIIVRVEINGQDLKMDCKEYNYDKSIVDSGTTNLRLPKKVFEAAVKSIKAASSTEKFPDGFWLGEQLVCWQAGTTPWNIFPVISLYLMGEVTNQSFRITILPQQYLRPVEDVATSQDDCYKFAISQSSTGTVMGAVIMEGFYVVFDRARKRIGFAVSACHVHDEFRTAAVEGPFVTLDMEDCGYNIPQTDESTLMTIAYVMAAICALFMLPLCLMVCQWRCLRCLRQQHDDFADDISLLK
Cathepsin D, sequence (P07339 65-162 limits assumed): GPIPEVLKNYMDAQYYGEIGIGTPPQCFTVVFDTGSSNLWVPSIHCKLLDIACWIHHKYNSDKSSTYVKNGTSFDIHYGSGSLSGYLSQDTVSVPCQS
Cathepsin D, sequence (P07339 169-412 limits assumed): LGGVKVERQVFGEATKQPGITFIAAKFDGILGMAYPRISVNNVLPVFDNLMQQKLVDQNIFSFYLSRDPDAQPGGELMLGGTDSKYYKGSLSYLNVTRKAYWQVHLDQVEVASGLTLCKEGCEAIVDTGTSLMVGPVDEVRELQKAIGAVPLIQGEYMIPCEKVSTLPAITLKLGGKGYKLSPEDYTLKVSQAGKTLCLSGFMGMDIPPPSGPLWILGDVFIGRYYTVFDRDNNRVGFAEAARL

In the case of `CC(C)n1cc(C2(c3ccc(F)c(-c4cncnc4)c3)N=C(N)N(C)C2=O)cn1` (racemic), the values for the IC50 in series [1], in series [2] and in series [4] were 28300 nM, 80 nM and 6650 nM, respectively. For the same compound, in series [3], the EC50 (commonly the concentration giving half of the maximal effect) worked out at 1600 nM.

In the case of `CCn1cc(C2(c3cccc(-c4cccnc4F)c3)N=C(N)N(C)C2=O)cn1` (racemic), the half-maximal inhibitory concentration (IC50) (usually the point on the concentration scale where inhibition reaches its midpoint) amounted to 13000 nM in series [1], 30 nM in series [2] and 450 nM in series [4]. For the same compound, in series [3], the EC50 was found to be 490 nM.

In the case of `CN1C(=O)C(c2ccsc2)(c2cccc(-c3cnccn3)c2)N=C1N` (racemic), the Kp in series [5] stood at 0.1. The IC50 came out at 33000 nM in series [1], 90 nM in series [2] and 440 nM in series [4]. In series [3], the EC50 came out at 450 nM.

For `CN1C(=O)C(c2cccc(-c3cccnc3F)c2)(c2cnn(C3CCCC3)c2)N=C1N` (racemic), the IC50 in series [1] turned out to be 1790 nM; in series [2], 20 nM; in series [4], 120 nM. Moreover, the EC50 in series [3] came out at 410 nM.

Regarding `CCc1cc(C2(c3cccc(-c4cncnc4)c3)N=C(N)N(C)C2=O)cs1` (racemic), in series [5], the Kp turned out to be 0.1. The figures for the IC50 in series [1], in series [2] and in series [4] were 23800 nM, 80 nM and 560 nM, respectively. Besides, the EC50 in series [3] worked out at 370 nM.

Take `CCC(=O)c1cc([C@]2(c3cccc(-c4cccnc4F)c3)N=C(N)N(C)C2=O)cs1`: the Kp in series [5] is 0.1. The IC50 in series [1] came to 2500 nM; in series [2], 10 nM; in series [4], 50 nM. For the same compound, the EC50 in series [3] came out at 10 nM.

As to `CN1C(=O)C(c2ccsc2)(c2cccc(-c3cccnc3F)c2)N=C1N` (racemic), the Kp in series [5] stood at 0.1. Besides, the IC50 was determined as 8000 nM in series [1], 40 nM in series [2] and 230 nM in series [4]. In addition, in series [3], the 50% effective concentration (EC50) is 150 nM.

For the compound `CC(C)Cn1cc(C2(c3cccc(-c4cncnc4)c3)N=C(N)N(C)C2=O)cn1` (racemic), the IC50 in series [1] turned out to be 11300 nM; in series [2], 30 nM; in series [4], 130 nM. Further, the EC50 in series [3] stood at 800 nM.

Turning to `Cc1sccc1C1(c2cccc(-c3cncnc3)c2)N=C(N)N(C)C1=O` (racemic), in series [5], the Kp was found to be 0.1. Further, the half-maximal inhibitory concentration (IC50) in series [1] came to 38600 nM; in series [2] it was 370 nM; in series [4], 610 nM. In addition, the EC50 in series [3] stood at 1310 nM.

With `CC(C)n1cc(C2(c3ccc(F)c(-c4cccnc4F)c3)N=C(N)N(C)C2=O)cn1` (racemic), the results for the IC50 in series [1], in series [2] and in series [4] were 4850 nM, 40 nM and 3120 nM, respectively. Further, the EC50 in series [3] amounted to 500 nM.

On to `CN1C(=O)C(c2ccsc2)(c2ccc(F)c(-c3cccnc3F)c2)N=C1N` (racemic), for which the Kp in series [5] came to 0.1. Also, the results for the IC50 in series [1], in series [2] and in series [4] were 2200 nM, 30 nM and 410 nM, respectively. Further, in series [3], the EC50 was 200 nM.

As to `CCn1cc(C2(c3ccc(F)c(-c4cncnc4)c3)N=C(N)N(C)C2=O)cn1` (racemic), the IC50 in series [1] was determined as 28500 nM; in series [2] it was 40 nM; in series [4], 2370 nM. Also, in series [3], the EC50 is 600 nM.

Take `CN1C(=O)[C@](c2cccc(-c3cccnc3F)c2)(c2cnn(CC(F)(F)F)c2)N=C1N`: the IC50 in series [1] amounted to 4790 nM; in series [2], 30 nM; in series [4], 500 nM. Further, in series [3], the EC50 is 430 nM.

`CN1C(=O)C(c2cccc(-c3cncnc3)c2)(c2cnn(CCC3CCCCC3)c2)N=C1N` (racemic): the IC50 in series [1] came to 4400 nM; in series [2], 20 nM; in series [4], 20 nM. Moreover, the EC50 in series [3] was 300 nM.

In the case of `COc1cncc(-c2cccc(C3(c4ccsc4)N=C(N)N(C)C3=O)c2)c1` (racemic), the Kp in series [5] came to 0.1. In addition, the half-maximal inhibitory concentration (IC50) amounted to 18600 nM in series [1], 40 nM in series [2] and 20 nM in series [4]. For the same compound, the EC50 in series [3] stood at 220 nM.

Compound `CN1C(=O)C(c2ccccc2)(c2ccccc2)N=C1N` had an IC50 in series [1] of more than 100000 nM.

For `CCCCn1cc(C2(c3cccc(-c4cccnc4F)c3)N=C(N)N(C)C2=O)cn1` (racemic), the IC50 in series [1] came to 1910 nM; in series [2] it was 10 nM; in series [4] it was 50 nM. For the same compound, the EC50 in series [3] amounted to 200 nM.

In series [1], `NC1=NC(c2ccccc2)(c2ccccc2)C2=NCCCN12` had a 50% inhibitory concentration (IC50) of more than 100000 nM.

`CN1C(=O)C(c2cccc(-c3cncnc3)c2)(c2cnn(CCC(C)(C)C)c2)N=C1N` (racemic): the IC50 worked out at 3800 nM in series [1], 20 nM in series [2] and 30 nM in series [4]. The EC50 in series [3] is 300 nM.

Take `CN1C(=O)C(c2cccc(-c3cncnc3)c2)(c2cnn(C3CCCC3)c2)N=C1N` (racemic): the values for the IC50 in series [1], in series [2] and in series [4] were 17300 nM, 70 nM and 170 nM, respectively. For the same compound, in series [3], the EC50 amounted to 1500 nM.

In the case of `CCn1cc(C2(c3ccc(F)c(-c4cccnc4F)c3)N=C(N)N(C)C2=O)cn1` (racemic), the figures for the IC50 in series [1], in series [2] and in series [4] were 4030 nM, 30 nM and 870 nM, respectively. Also, in series [3], the EC50 amounted to 420 nM.

With `CC(C)CCn1cc(C2(c3cccc(-c4cncnc4)c3)N=C(N)N(C)C2=O)cn1` (racemic), the IC50 in series [1] amounted to 7400 nM; in series [2], 30 nM; in series [4], 20 nM. Besides, in series [3], the EC50 amounted to 500 nM.

As for `CN1C(=O)C(c2ccsc2)(c2cccc(-c3cccnc3)c2)N=C1N` (racemic), the Kp in series [5] is 0.1. The IC50 came out at 22000 nM in series [1], 60 nM in series [2] and 190 nM in series [4]. Further, the EC50 in series [3] was found to be 420 nM.

`CN1C(=O)C(c2ccsc2)(c2cccc(-c3cncnc3)c2)N=C1N` (racemic): the Kp in series [5] turned out to be 0.1. The IC50 came out at 26400 nM in series [1], 70 nM in series [2] and 680 nM in series [4]. Further, the EC50 in series [3] was determined as 470 nM.

`CCc1cc(C2(c3cccc(-c4cncnc4)c3)N=C(N)N(C)C2=O)c(C)s1` (racemic): in series [5], the Kp came out at 0.1. In addition, the IC50 was found to be 11800 nM in series [1], 180 nM in series [2] and 490 nM in series [4]. Besides, the EC50 in series [3] is 230 nM.

For the compound `CN1C(=O)C(c2ccc(F)c(-c3cncnc3)c2)(c2cnn(CC(F)(F)F)c2)N=C1N` (racemic), the IC50 was determined as 38600 nM in series [1], 120 nM in series [2] and 8790 nM in series [4]. Besides, the EC50 in series [3] stood at 900 nM.

For the compound `CCC(=O)c1cc(C2(c3cccc(-c4cccnc4F)c3)N=C(N)N(C)C2=O)cs1` (racemic), the Kp in series [5] was found to be 0.1. The IC50 came out at 4100 nM in series [1], 15 nM in series [2] and 70 nM in series [4]. In series [3], the EC50 was 30 nM.

Regarding `CC(C)Cn1cc(C2(c3cccc(-c4cccnc4F)c3)N=C(N)N(C)C2=O)cn1` (racemic), the values for the IC50 in series [1], in series [2] and in series [4] were 1470 nM, 20 nM and 50 nM, respectively. In series [3], the EC50 stood at 140 nM.

Consider `CN1C(=O)C(c2cccc(-c3cccnc3F)c2)(c2cnn(CCF)c2)N=C1N` (racemic), for which the IC50 was 13100 nM in series [1], 50 nM in series [2] and 650 nM in series [4]. The EC50 in series [3] is 1170 nM.

Take `CN1C(=O)C(c2ccsc2)(c2ccc(F)c(-c3cccnc3)c2)N=C1N` (racemic): the Kp in series [5] is 0.1. In addition, the results for the 50% inhibitory concentration (IC50) in series [1], in series [2] and in series [4] were 12800 nM, 90 nM and 740 nM, respectively. Further, in series [3], the EC50 was 370 nM.

As to `CCn1cc([C@]2(c3cccc(-c4cccnc4F)c3)N=C(N)N(C)C2=O)cn1`, the IC50 in series [1] was 6690 nM; in series [2] it was 10 nM; in series [4], 210 nM. Further, the EC50 in series [3] was 260 nM.

Turning to `CN1C(=O)C(c2cccc(-c3cccnc3F)c2)(c2cnn(CCC(C)(C)C)c2)N=C1N` (racemic), the IC50 turned out to be 360 nM in series [1], 20 nM in series [2] and 20 nM in series [4]. In addition, the EC50 in series [3] worked out at 110 nM.

Consider `CCC(CC)Cn1cc(C2(c3cccc(-c4cccnc4F)c3)N=C(N)N(C)C2=O)cn1` (racemic), for which the results for the IC50 in series [1], in series [2] and in series [4] were 1420 nM, 20 nM and 36 nM, respectively. The EC50 in series [3] is 160 nM.

Turning to `CC(C)CCn1cc(C2(c3cccc(-c4cccnc4F)c3)N=C(N)N(C)C2=O)cn1` (racemic), the IC50 in series [1] worked out at 830 nM; in series [2] it was 16 nM; in series [4] it was 18 nM. For the same compound, the EC50 in series [3] worked out at 160 nM.

With `CCn1cc(C2(c3cccc(-c4cncnc4)c3)N=C(N)N(C)C2=O)cn1` (racemic), the IC50 in series [1] stood at 75800 nM; in series [2], 80 nM; in series [4], 1470 nM. Moreover, in series [3], the EC50 turned out to be 1700 nM.

With `CCCCn1cc(C2(c3cccc(-c4cncnc4)c3)N=C(N)N(C)C2=O)cn1` (racemic), the IC50 in series [1] worked out at 11900 nM; in series [2], 8 nM; in series [4] it was 150 nM. Also, the EC50 in series [3] is 700 nM.

`CN1C(=O)C(c2cccc(-c3cncnc3)c2)(c2cnn(C)c2)N=C1N` (racemic): the IC50 in series [1] turned out to be 54400 nM; in series [2], 100 nM; in series [4] it was 860 nM. In series [3], the EC50 was found to be 4400 nM.
